Each structure is given as a SMILES string.

The target of one assay is T1, F508del in NIH 3T3 cells (Homo sapiens, UniProt P13569, DEL508-508).
T1 construct: expressed in transfected cells
The assay is described as follows: 3T3 assay: membrane potential optical assay for F508del correction. The note with it: for EC50 / 3T3 Max Activity (%): F508del NIH 3T3 cells; for EC50: compound incubation 18-24 hours at 37° C., forskolin activation, read-out: 3T3 EC50; for Emax: NIH3T3, F508del NIH 3T3 cells, read-out: 3T3 Max Activity (%); for Emax / 3T3 Max Activity (%): efficacy compared to lumacaftor in combination with acutely added 300 nM Ivacaftor. The class given is cell-based, mouse. An excerpt:
a. Membrane Potential Optical Methods for Assaying F508del Modulation Properties of Compounds
The assay utilizes fluorescent voltage sensing dyes to measure changes in membrane potential using a fluorescent plate reader (e.g., FLIPR III, Molecular Devices, Inc.) as a readout for increase in functional F508del in NIH 3T3 cells. The driving force for the response is the creation of a chloride ion gradient in conjunction with channel activation by a single liquid addition step after the cells have previously been treated with compounds and subsequently loaded with a voltage sensing dye.
b. Identification of Corrector Compounds
To identify correctors of F508del, a single-addition HTS assay format was developed. This HTS assay utilizes fluorescent voltage sensing dyes to measure changes in membrane potential on the FLIPR III as a measurement for increase in gating (conductance) of F508del in F508del NIH 3T3 cells. The F508del NIH 3T3 cell cultures were incubated with the corrector compounds at a range of concentrations for 18-24 hours at 37° C., and subsequently loaded with a redistribution dye. The driving force for the response is a Cl^− ion gradient in conjunction with channel activation with forskolin in a single liquid addition step using a fluorescent plate reader such as FLIPR III.
Bath Solution #1: (in mM) NaCl 160, KCl 4.5, CaCl2 2, MgCl2 1, HEPES 10, pH 7.4 with NaOH.
Chloride-free bath solution: Chloride salts in Bath Solution #1 (above) are substituted with gluconate salts.
NIH3T3 mouse fibroblasts stably expressing F508del are used for optical measurements of membrane potential. The cells are maintained at 37° C. in 5% CO2 and 90% humidity in Dulbecco's modified Eagle's medium supplemented with 2 mM glutamine, 10% fetal bovine serum, 1×NEAA, b-ME, 1× pen/strep, and 25 mM HEPES in 175 cm^2 culture flasks. For all optical assays, the cells were seeded at ˜20,000/well in 384-well Matrigel-coated plates. For the correction assays, the cells are cultured at 37° C. with and without compounds for 16-24 hours.

Assay [1] addresses CFTR-mediated chloride transport in human intestinal epithelial enteroid cells (Homo sapiens, UniProt P13569). The assay is described as follows: Membrane potential dye, Enteroid Assay A. It is filed as cell-based. Particulars: for Ent. A Max Activity (%): % of chloride transport of triple combination control (3 μM N-[(6-amino-2-pyridyl)sulfonyl]-6-(3-fluoro-5-isobutoxy-phenyl)-2-[(4S)-2,2,4-trimethylpyrrolidin-1-yl]pyridine-3-carboxamide, 3 μM tezacaftor, 300 nM acute ivacaftor); for EC50: enteroid cells, 18-24 hours incubation, acute 10 μM forskolin and 300 nM ivacaftor, read-out: Ent. A EC50. How it is done:
Base medium (ADF+++) consisted of Advanced DMEM/Ham's F12, 2 mM Glutamax, 10 mM HEPES, […] penicillin/streptomycin.
Intestinal enteroid maintenance medium (IEMM) consisted of ADF+++, 1×B27 supplement, 1×N2 supplement, 1.25 mM N-acetyl cysteine, 10 mM Nicotinamide, 50 ng/mL hEGF, 10 nM Gastrin, 1 μg/mL hR-spondin-1, 100 ng/mL hNoggin, TGF-b type 1 inhibitor A-83-01, 100 μg/mL Primocin, 10 μM P38 MAPK inhibitor SB202190.
Bath 1 Buffer consisted of 1 mM MgCl2, 160 mM NaCl, 4.5 mM KCl, 10 mM HEPES, 10 mM Glucose, 2 mM CaCl2.
Chloride Free Buffer consisted of 1 mM Magnesium Gluconate, 2 mM Calcium Gluconate, 4.5 mM Potassium Gluconate, 160 mM Sodium Gluconate, 10 mM HEPES, 10 mM Glucose.
Bath1 Dye Solution consisted of Bath 1 Buffer, 0.04% Pluronic F127, 20 μM Methyl Oxonol, 30 μM CaCCinh-A01, 30 μM Chicago Sky Blue.
Chloride Free Dye Solution consisted of Chloride Free Buffer, 0.04% Pluronic F127, 20 μM Methyl Oxonol, 30 μM CaCCinh-A01, 30 μM Chicago Sky Blue.
Chloride Free Dye Stimulation Solution consisted of Chloride Free Dye Solution, 10 μM forskolin, 100 μM IBMX, and 300 nM Compound III.
Human intestinal epithelial enteroid cells were obtained from the Hubrecht Institute for Developmental Biology and Stem Cell Research, Utrecht, The Netherlands and expanded in T-Flasks as previously described (Dekkers J F, Wiegerinck C L, de Jonge H R, Bronsveld I, Janssens H M, de Winter-de Groot K M, Brandsma A M, de Jong N W M, Bijvelds M J C, Scholte B J, Nieuwenhuis E E S, van den Brink S, Clevers H, van der Ent C K, Middendorp S and M Beekman J M. A functional CFTR assay using primary cystic fibrosis intestinal organoids. Nat Med. 2013 July; 19(7):939-45).
c. Enteroid Cell Harvesting and Seeding
Cells were recovered in cell recovery solution, collected by centrifugation at 650 rpm for 5 minutes at 4° C., resuspended in TrypLE and incubated for 5 minutes at 37° C. Cells were then collected by centrifugation at 650 rpm for 5 minutes at 4° C. and resuspended in IEMM containing 10 μM ROCK inhibitor (RI). The cell suspension was passed through a 40 μm cell strainer and resuspended at 1×10^6 cells/mL in IEMM containing 10 μM RI. Cells were seeded at 5000 cells/well into multi-well plates and incubated for overnight at 37° C., 95% humidity and 5% CO2 prior to assay.
d. Membrane Potential Dye, Enteroid Assay A
Enteroid cells were incubated with test compound in IEMM for 18-24 hours at 37° C., 95% humidity and 5% CO2. […] Briefly, cells were washed 5 times in Bath 1 Buffer. Bath 1 Dye Solution was added, and the cells were incubated for 25 minutes at room temperature. Following dye incubation, cells were washed 3 times in Chloride Free Dye Solution. Chloride transport was initiated by addition of Chloride Free Dye Stimulation Solution and the fluorescence signal was read for 15 minutes. […] Chloride transport was then expressed as a percentage of the chloride transport following treatment with 3 μM N-[(6-amino-2-pyridyl)sulfonyl]-6-(3-fluoro-5-isobutoxy-phenyl)-2-[(4S)-2,2,4-trimethylpyrrolidin-1-yl]pyridine-3-carboxamide, 3 μM (R)-1-(2,2-difluorobenzo[d][1,3]dioxol-5-yl)-N-(1-(2,3-dihydroxypropyl)-6-fluoro-2-(1-hydroxy-2-methylpropan-2-yl)-1H-indol-5-yl)cyclopropanecarboxamide and 300 nM acute N-[2,4-bis(1,1-dimethylethyl)-5-hydroxyphenyl]-1,4-dihydro-4-oxoquinoline-3-carboxamide triple combination control (% Activity).

T1 sequence (P13569 with tags, fused parts or gaps DEL508-508): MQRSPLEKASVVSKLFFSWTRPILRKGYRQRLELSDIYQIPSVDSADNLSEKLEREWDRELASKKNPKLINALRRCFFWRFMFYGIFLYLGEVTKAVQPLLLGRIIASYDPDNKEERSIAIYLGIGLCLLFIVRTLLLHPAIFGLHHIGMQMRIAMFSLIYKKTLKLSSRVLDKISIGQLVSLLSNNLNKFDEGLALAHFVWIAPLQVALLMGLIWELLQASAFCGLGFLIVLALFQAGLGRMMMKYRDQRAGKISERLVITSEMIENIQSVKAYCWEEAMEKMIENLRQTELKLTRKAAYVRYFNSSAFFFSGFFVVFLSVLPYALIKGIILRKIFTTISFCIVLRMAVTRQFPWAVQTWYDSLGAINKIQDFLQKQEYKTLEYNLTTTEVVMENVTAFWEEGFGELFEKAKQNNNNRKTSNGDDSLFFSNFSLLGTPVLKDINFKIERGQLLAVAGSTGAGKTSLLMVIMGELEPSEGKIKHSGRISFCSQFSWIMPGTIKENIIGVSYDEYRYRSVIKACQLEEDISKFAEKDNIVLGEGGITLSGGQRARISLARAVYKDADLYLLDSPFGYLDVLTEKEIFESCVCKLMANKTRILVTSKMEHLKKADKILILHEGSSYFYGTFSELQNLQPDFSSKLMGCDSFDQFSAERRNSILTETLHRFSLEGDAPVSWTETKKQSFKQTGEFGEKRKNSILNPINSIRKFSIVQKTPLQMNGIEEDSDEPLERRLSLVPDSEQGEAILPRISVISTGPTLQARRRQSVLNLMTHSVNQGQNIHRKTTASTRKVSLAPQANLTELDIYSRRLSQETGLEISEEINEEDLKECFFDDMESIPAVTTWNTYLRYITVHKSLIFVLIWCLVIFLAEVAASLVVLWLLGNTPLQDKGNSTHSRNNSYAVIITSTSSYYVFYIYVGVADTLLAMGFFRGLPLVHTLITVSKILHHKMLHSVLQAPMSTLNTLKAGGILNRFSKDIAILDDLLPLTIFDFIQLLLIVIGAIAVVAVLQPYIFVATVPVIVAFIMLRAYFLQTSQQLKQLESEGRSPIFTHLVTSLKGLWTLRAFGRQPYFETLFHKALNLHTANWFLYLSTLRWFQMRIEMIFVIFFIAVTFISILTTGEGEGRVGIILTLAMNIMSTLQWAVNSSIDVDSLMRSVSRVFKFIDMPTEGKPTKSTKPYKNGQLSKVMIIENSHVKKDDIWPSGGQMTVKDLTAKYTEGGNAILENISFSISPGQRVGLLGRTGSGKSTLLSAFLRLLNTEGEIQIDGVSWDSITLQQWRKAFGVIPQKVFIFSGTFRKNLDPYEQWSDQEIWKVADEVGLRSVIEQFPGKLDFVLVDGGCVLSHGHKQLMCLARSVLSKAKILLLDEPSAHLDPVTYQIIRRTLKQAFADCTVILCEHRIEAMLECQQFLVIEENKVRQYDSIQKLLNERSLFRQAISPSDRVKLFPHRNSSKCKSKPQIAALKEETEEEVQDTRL
Chain of CFTR-mediated chloride transport in human intestinal epithelial enteroid cells (P13569 with tags, fused parts or gaps DEL508-508): as above

As to `Cc1cccc(C)c1-c1cc2nc(n1)NS(=O)(=O)c1cccc(c1)NC(=O)[C@@H]1C[C@@H](CN(CCC(C)(C)C)C1)O2` [Compound 5, (3S,7R)-5-(3,3-Dimethylbutyl)-19-(2,6-dimethylphenyl)-2-oxa-15λ^6-thia-5,9,16,18,21-pentaazatetracyclo[15.3.1.13,7.110,14]tricosa-1(20),10,12,14(22),17(21),18-hexaene-8,15,15-trione], on F508del in NIH 3T3 cells, the EC50 is under 1000 nM and the Emax is over 60%. For the same molecule, in assay [1], the “Ent. A Max Activity (%)” value is on record as “+++ (+++ is >60%)” and the EC50 was under 1000 nM.
As to `Cc1cccc(C)c1-c1cc2nc(n1)NS(=O)(=O)c1cccc(c1)NC(=O)[C@@H]1C[C@@H](CN(C(=O)OCCF)C1)O2` [Compound 33], on F508del in NIH 3T3 cells, the EC50 was under 1000 nM and the Emax is over 60%. Besides, in assay [1], the “Ent. A Max Activity (%)” value was “++ (++ is 30-60%)” and the 50% effective concentration (EC50) fell in the range of 1000 to 3000 nM.
The corresponding values for `Cc1ccc2cc1Oc1cc(-c3c(C)cccc3C)nc(n1)NS(=O)(=O)c1cccc(c1)NC2=O` [Compound 57, 5-(2,6-Dimethylphenyl)-20-methyl-2-oxa-9λ^6-thia-6,8,15,23-tetraazatetracyclo[15.3.1.13,7.110,14]tricosa-1(21),3(23),4,6,10,12,14(22),17,19-nonaene-9,9,16-trione] are under 1000 nM, over 60%, “++ (++ is 30-60%)” and under 1000 nM.
With `Cc1cccc(C)c1-c1cc2nc(n1)NS(=O)(=O)c1cccc(c1)NC(=O)[C@@H]1C[C@@H](CN(C(=O)NC(C)(C)C)C1)O2` [Compound 44], at F508del in NIH 3T3 cells, the EC50 is under 1000 nM and the Emax is over 60%. In assay [1], the “Ent. A Max Activity (%)” value was “+++ (+++ is >60%)” and the EC50 was 3000 to 30000 nM.
For the molecule `Cc1cccc(C)c1-c1cc2nc(n1)NS(=O)(=O)c1cccc(c1)NC(=O)[C@@H]1C[C@@H](CN(CCC3CC3)C1)O2` [Compound 28], at F508del in NIH 3T3 cells, the EC50 was under 1000 nM and the Emax is over 60%. In addition, in assay [1], the “Ent. A Max Activity (%)” value is “++ (++ is 30-60%)” and the EC50 was under 1000 nM.
For `Cc1cccc(C)c1-c1cc2nc(n1)NS(=O)(=O)c1cccc(c1)NC(=O)[C@H]1CNC[C@H](C1)O2` [Compound 49], on F508del in NIH 3T3 cells, the EC50 fell in the range of 1000 to 3000 nM and the Emax was over 60%. In assay [1], the “Ent. A Max Activity (%)” value is on record as “+ (+ is <30%)”.
As to `Cc1cc2cc(c1)C(=O)Nc1cccc(c1)S(=O)(=O)Nc1nc(cc(-c3c(C)cccc3C)n1)O2` [Compound 110], on F508del in NIH 3T3 cells, the EC50 was under 1000 nM and the Emax is over 60%. In addition, in assay [1], the “Ent. A Max Activity (%)” value was “++ (++ is 30-60%)” and the concentration for a half-maximal effect (EC50) was 1000 to 3000 nM.
`Cc1cccc(C)c1-c1cc2nc(n1)NS(=O)(=O)c1cccc(n1)NC(=O)C1CC(CN(CCC(C)(C)C3CC3)C1)O2` (stereo not shown) [Compound 15, 5-(3-Cyclopropyl-3-methylbutyl)-19-(2,6-dimethylphenyl)-2-oxa-15λ^6-thia-5,9,16,18,21,22-hexaazatetracyclo[15.3.1.13,7.110,14]tricosa-1(21),10,12,14(22),17,19-hexaene-8,15,15-trione]: on F508del in NIH 3T3 cells, the EC50 is under 1000 nM and the Emax was over 60%. In assay [1], the “Ent. A Max Activity (%)” value is reported as “++ (++ is 30-60%)” and the EC50 was under 1000 nM.
Turning to `Cc1cccc(C)c1-c1cc2nc(n1)NS(=O)(=O)c1cccc(c1)NC(=O)[C@H]1CCC[C@H](C1)O2` (single isomer, unassigned) [Compound 69, 5-(2,6-dimethylphenyl)-9,9-dioxo-2-oxa-9λ^6-thia-6,8,15,23-tetraazatetracyclo[15.3.1.13,7.110,14]tricosa-3,5,7(23),10(22),11,13-hexaen-16-one], at F508del in NIH 3T3 cells, the 50% effective concentration (EC50) was under 1000 nM and the “3T3 Max Activity (%)” value is “+++ (+++ is >60%)”. Besides, in assay [1], the “Ent. A Max Activity (%)” value is “++ (++ is 30-60%)” and the EC50 is 1000 to 3000 nM.
Consider `Cc1cccc(C)c1-c1cc2nc(n1)NS(=O)(=O)c1cccc(c1)NC(=O)[C@@H]1CNC[C@@H](C1)O2` [Compound 50], for which, at F508del in NIH 3T3 cells, the Emax is under 30%. In addition, in assay [1], the “Ent. A Max Activity (%)” value is “+ (+ is <30%)”.
`Cc1cccc(C)c1-c1cc2nc(n1)NS(=O)(=O)c1cccc(c1)NC(=O)C1CNCC(C1)O2` (stereo not shown) [Compound 52]: on F508del in NIH 3T3 cells, the “3T3 Max Activity (%)” value is on record as “+ (+ is <30%)”. Further, in assay [1], the “Ent. A Max Activity (%)” value is “+ (+ is <30%)” and the EC50 is 3000 to 30000 nM.
As for `Cc1cccc(C)c1-c1cc2nc(c1)Oc1cccc(c1)C(=O)Nc1cccc(c1)S(=O)(=O)N2` [Compound 76, 5-(2,6-Dimethylphenyl)-9,9-dioxo-2-oxa-9λ^6-thia-8,15,23-triazatetracyclo[15.3.1.13,7.110,14]tricosa-1(21),3(23),4,6,10,12,14(22),17,19-nonaen-16-one], the Emax at F508del in NIH 3T3 cells is under 30%. The “Ent. A Max Activity (%)” value in assay [1] is recorded as “+ (+ is <30%)”.
`Cc1cccc(C)c1-c1cc2nc(n1)NS(=O)(=O)c1cccc(c1)NC(=O)[C@@H]1C[C@@H](CN(C3CCCCC3)C1)O2` [Compound 10, (3S,7R)-5-cyclohexyl-19-(2,6-dimethylphenyl)-2-oxa-15λ^6-thia-5,9,16,18,21-pentaazatetracyclo[15.3.1.13,7.110,14]tricosa-1(21),10(22),11,13,17,19-hexaene-8,15,15-trione]: on F508del in NIH 3T3 cells, the EC50 was under 1000 nM. Moreover, in assay [1], the “Ent. A Max Activity (%)” value is on record as “++ (++ is 30-60%)” and the EC50 was in the range of 1000 to 3000 nM.
Regarding `Cc1cccc(C)c1-c1cc2nc(n1)NS(=O)(=O)c1cccc(c1)NC(=O)[C@@H]1C[C@@H](CN(C(=O)CC(C)(C)C)C1)O2` [Compound 45], at F508del in NIH 3T3 cells, the EC50 was under 1000 nM and the Emax was over 60%. For the same molecule, in assay [1], the “Ent. A Max Activity (%)” value was “+++ (+++ is >60%)” and the EC50 is 1000 to 3000 nM.

What is called EC50 is the concentration giving half of the maximal effect.
